In US8759579B2, “Cyclobutyl sulfones as notch sparing gamma secretase inhibitors” (Merck Sharp & Dohme Corp., priority 2008, dated 2014):
Entries after “also recorded” stand apart in the source; their conditions may differ.

Assays:
[1] = target: T1, pregnane X receptor (PXR) (Homo sapiens, UniProt O75469); experiment: PXR assay (CYP3A4-SEAP transactivation assay, PCSTA); type: cell-based; conditions: HEP G2 cells
T1 construct: expressed in transfected cells; host or cells: HEP G2
T1 sequence (O75469 1-434): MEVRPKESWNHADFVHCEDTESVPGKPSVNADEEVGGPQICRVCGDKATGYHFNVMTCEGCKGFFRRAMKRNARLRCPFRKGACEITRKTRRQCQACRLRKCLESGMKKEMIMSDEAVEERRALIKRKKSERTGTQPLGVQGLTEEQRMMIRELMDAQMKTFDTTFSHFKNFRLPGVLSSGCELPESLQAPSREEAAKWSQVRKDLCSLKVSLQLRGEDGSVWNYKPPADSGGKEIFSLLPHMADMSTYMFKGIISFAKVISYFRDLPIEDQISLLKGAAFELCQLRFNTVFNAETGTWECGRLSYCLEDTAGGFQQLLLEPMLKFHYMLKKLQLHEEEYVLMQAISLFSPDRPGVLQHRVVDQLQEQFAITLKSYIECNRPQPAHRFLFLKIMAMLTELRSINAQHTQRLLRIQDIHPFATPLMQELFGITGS
T1 sequence (P19793 1-462 partner): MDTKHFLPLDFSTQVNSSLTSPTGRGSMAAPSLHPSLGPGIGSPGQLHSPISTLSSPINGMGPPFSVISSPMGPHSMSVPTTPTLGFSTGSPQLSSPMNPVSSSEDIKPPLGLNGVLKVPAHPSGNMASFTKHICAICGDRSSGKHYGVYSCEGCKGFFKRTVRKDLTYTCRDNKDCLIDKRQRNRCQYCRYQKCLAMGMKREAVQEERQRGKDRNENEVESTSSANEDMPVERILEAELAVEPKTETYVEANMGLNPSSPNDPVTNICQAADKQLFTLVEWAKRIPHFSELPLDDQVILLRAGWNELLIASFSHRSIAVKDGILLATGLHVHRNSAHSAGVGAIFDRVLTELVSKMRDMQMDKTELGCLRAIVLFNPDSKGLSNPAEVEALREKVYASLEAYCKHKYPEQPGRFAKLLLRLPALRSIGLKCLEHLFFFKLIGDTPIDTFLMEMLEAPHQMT
Source text: The CYP3A4-SEAP transactivation assay (PCSTA) effectively and rapidly evaluates compounds for their potential to induce cytochrome P450 CYP3A (human CYP3A4 or rat CYP3A1). The reporter construct contains regulatory regions from the CYP3A4 gene positioned just upstream of a secreted alkaline phosphatase (SEAP) gene. The human PXR nuclear receptor has been modified at the 5′-end so that methionine is the initiating amino acid replacing leucine found in the wild-type sequence. HEP G2 cells are transfected with the PXR plasmid (human or rat) and the reporter plasmid. Read-out for the induction of CYP3A4 consists of a SEAP calorimetric assay with para-nitro-phenyl phosphate (pNPP) as the substrate. Five point dose-response curves in duplicate are then generated with each point corresponding to the rate of conversion of pNPP to pNP by SEAP. For the human PCSTA, rifampicin is used as the positive control and 100% induction is based upon the maximum induction produced by rifampicin at 10 μM.

[2] = covalent protein binding assay with liver microsomes; type: in vitro ADME; conditions: radiolabeled compound incubated with human liver microsomes
Protocol: MRK-560 and Example 2 were tested in a covalent protein binding assay which is predictive of drug toxicity. The potential of drug candidates to cause covalent binding to proteins is evaluated by incubation of the radiolabeled version of the compound in question with liver microsomes. A semi-automated method based on Brandel Harvester technique is then used to measure the formation of covalent adducts of the test compound to liver proteins binding (Ref. Day et. al, J Pharmacol Toxicol Methods. 52, 278-85, 2005).

[3] = test system: γ-secretase substrates NotchΔE, E-cadherin, SCN2b and CD43 in HEK293 cells; experiment: Full length γ-secretase substrates, immunoblot of cell lysates; type: cell-based; conditions: titrated concentrations with TPA
Protocol: Assessing Full Length γ-Secretase Substrates (Assay Qualitatively Assesses the Processing of a Panel of γ-Secretase Substrates)
Cells are plated and treated overnight with titrated compound and the phorbol ester, TPA. Since all of the proteins undergo regulated membrane proteolysis characterized by an initial ectodomain shedding event followed by the intramembraneous cleavage of the […] fragment (CTF) by γ-secretase, TPA induces the initial cleavage event producing the substrate for γ-secretase. The effect of compounds on γ-secretase activity in relation to these substrates is measured by tracking the processing of the V5 tagged CTFs by Western blot analysis. Accumulation of the CTFs indicates inhibition of γ-secretase activity.

Tg2576 mouse = conditions: cited from earlier work
[4] = test system: APP and Notch processing pathway; conditions: literature report; cited from earlier work
γ-secretase complex = experiment: Compound binding assay (displacement of tritiated γ-secretase inhibitor tracers); conditions: semi-purified γ-secretase complex, increasing concentrations
Protocol: Compound Binding: (Assay Quantitates In Vitro Displacement of Bound γ-Secretase Inhibitor Tracers)
All radioligand binding experiments are performed using CHAPSO-solubilized HEK293 (gammaNRCF8) P2 membranes stably over expressing recombinant gamma secretase. For radioligand binding, solubilized enzyme is incubated in the presence of tritiated inhibitors. Nonspecific binding is determined by adding an excess of unlabeled inhibitor to the reaction, and serial dilutions of the tritiated ligands are used to obtain saturation binding isotherm. Bound ligand is separated from free ligand by adsorption of the enzyme complex to polyethyleneimine-coated glass fiber filter plates and rapid filtration in a cell harvester followed by washing. After drying plates, scintillant is added, and the plates are read on a Microplate Scintillation counter. Binding competition assay is performed by incubating serial dilutions of various inhibitors in the presence of 1 nM ^3H-labeled compound Reference Example L-458 (transition state inhibitor) or 4 nM ^3H-labeled compound Reference Example L-881 (non-transition state inhibitor). To determine the antagonist competitiveness of various inhibitors, respective ^3H tracer doss-response curves are analyzed in presence of different concentrations of these compounds.

[5] = test system: ε/S3-site cleavage of γ-secretase substrates (APP-GVP, NotchΔE-GVP, E-cadherin-GVP, CD44-GVP); experiment: ICD transactivation assay (intracellular domain release of γ-secretase substrates); type: cell-based; conditions: HEK cells, 1 μM, 48 hours
Source text: ICD Transactivation (Assay Quantitates Intracellular Domain Release of a Panel of γ-Secretase Substrates in Cell Lines)
A Firefly luciferase based transactivation assay is used to measure inhibition of ε/S3-site cleavage of γ-secretase substrates. This assay involves the use of chimeric substrates harboring a GAL4/VP16 (GVP) transactivation domain fused to the intracellular domain (ICD): APP-GVP, NotchΔE-GVP, E-cadherin-GVP and CD44-GVP. Upon cleavage and release of ICDs, the GVP domain drives the expression of the luciferase gene under the control of the UAS promoter. In this assay, HEK cells were transiently co-transfected with the chimeric substrate along with a UAS promoter driven luciferase and β-galactosidase (transfection control). Upon cleavage by γ-secretase, the released ICD-GVP translocates to the nucleus to drive the expression of the UAS-luciferase gene. The activity of luciferase in these cells is directly proportional to the amount of γ-secretase-cleaved ICDs. Luciferase activity is determined by the standard techniques of luciferin addition to lysed cells and measurement of total luminescence. In addition, to account for the differences in transfection efficiencies an absorbance based β-galactosidase enzyme assay is performed to normalize the luminescence read-out.

Q: With `O=S(=O)(NC1CCC(c2cc(F)ccc2F)(S(=O)(=O)c2ccc(Cl)cc2)CC1)C(F)(F)F` (stereo not shown) [MRK-560] as the compound, how does the EC50 [1] read?
A: The EC50 was 617 nM.

Q: And the “covalent protein binding (human microsomes)” value [2]?
A: The value was 1308 pmol/mg.

Q: What about the “accumulation of CTFs (immunoblot)” value ([3]; HEK293 cells overexpressing E-cadherin, SCN2b, CD43) of the same compound?
A: The value was “caused accumulation of CTFs; also recorded: SCN2b-, ECAD- and CD43-CTF accumulation”.

Q: And the “NICD generation (immunoblot)” value ([3]; HEK293 cells overexpressing NotchΔE)?
A: The value was “inhibited NICD generation”.

Q: And the “effects on amyloid plaque deposition” value (Tg2576 mouse)?
A: The value was “beneficial effects on amyloid plaque deposition”.

Q: And the “toxicity related to changes in the Notch signaling pathway” value (Tg2576 mouse)?
A: The value was “absence of toxicity”.

Q: And the “separation between in vitro inhibition of APP and Notch processing pathway” value [4]?
A: The value was “little or no separation”.

Q: And the “displacement of tritiated tracer L-458 (transition state)” value (γ-secretase complex)?
A: The value was “partial”.

Q: What about the “displacement of tritiated tracer L-881 (non transition state)” value (γ-secretase complex) of the same compound?
A: The value was “full”.

Q: And the “ICD release of γ-secretase substrates (ε/S3-cleavage)” value [5]?
A: Its value is “inhibited ICD release of all examined substrates”.
